Data from patent US7300941B2, “Non-imidazole compounds” (Schering Corporation, priority 2000, dated 2007).
pKi: −log10 of the molar value. Where “and” joins values, the source holds several entries; their conditions need not be identical. Equal values may be shown once.

Each compound was assayed against T1, H3 receptors (Cavia porcellus, UniProt Q9JI35) (assay: H3-Receptor Binding Assay). Conditions: guinea pig brain membranes; 3 nM [3H]R-α-methyl histamine or 3 nM [3H]Nα-methyl histamine; 30° C., 30 min.
T1 construct: The brain tissue was homogenized with a solution of 50 mM Tris, pH 7.5; from tissue; host or cells: guinea pig brain membranes
T1 sequence (Q9JI35 whole entry): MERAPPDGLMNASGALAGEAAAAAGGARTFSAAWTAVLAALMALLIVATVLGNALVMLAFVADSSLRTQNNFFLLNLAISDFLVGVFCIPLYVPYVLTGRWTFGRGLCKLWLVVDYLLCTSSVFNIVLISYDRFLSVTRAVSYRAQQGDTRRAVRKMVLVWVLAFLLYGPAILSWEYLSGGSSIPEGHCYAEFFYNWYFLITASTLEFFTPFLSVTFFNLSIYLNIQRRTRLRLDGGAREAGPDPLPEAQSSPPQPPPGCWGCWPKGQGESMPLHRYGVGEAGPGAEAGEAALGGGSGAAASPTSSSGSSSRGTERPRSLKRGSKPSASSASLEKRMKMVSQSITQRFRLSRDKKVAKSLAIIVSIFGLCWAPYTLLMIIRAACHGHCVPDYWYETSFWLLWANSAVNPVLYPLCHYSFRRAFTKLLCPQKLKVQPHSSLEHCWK
Protocol: H3-Receptor Binding Assay
The source of the H3 receptors in this experiment was guinea pig brain. The animals weighed 400-600 g. The brain tissue was homogenized with a solution of 50 mM Tris, pH 7.5. The final concentration of tissue in the homogenization buffer was 10% w/v. The homogenates were centrifuged at 1,000×g for 10 min. in order to remove clumps of tissue and debris. The resulting supernatants were then centrifuged at 50,000×g for 20 min. in order to sediment the membranes, which were next washed three times in homogenization buffer (50,000×g for 20 min. each). The membranes were frozen and stored at −70° C. until needed.
All compounds to be tested were dissolved in DMSO and then diluted into the binding buffer (50 mM Tris, pH 7.5) such that the final concentration was 2 μg/ml with 0.1% DMSO. Membranes were then added (400 μg of protein) to the reaction tubes. The reaction was started by the addition of 3 nM [^3H]R-α-methyl histamine (8.8 Ci/mmol) or 3 nM [^3H]N^α-methyl histamine (80 Ci/mmol) and continued under incubation at 30° C. for 30 min. Bound ligand was separated from unbound ligand by filtration, and the amount of radioactive ligand bound to the membranes was quantitated by liquid scintillation spectrometry. All incubations were performed in duplicate and the standard error was always less than 10%. Compounds that inhibited more than 70% of the specific binding of radioactive ligand to the receptor were serially diluted to determine a Ki (nM).

Structure (SMILES)	pKi
Nc1cc(CN2CCC(C(=O)N3CCC(c4noc5cc(F)ccc45)CC3)CC2)ccn1 [Compound 23]	7.48 to 9.60
Nc1cc(CN2CCC(C(=O)N3CCC(C(=O)c4ccccn4)CC3)CC2)ccn1 [Compound 30]	7.48 to 9.60 and 7.80 to 9.60
CON=C(c1ccccn1)C1CCN(C(=O)C2CCN(Cc3ccnc(N)c3)CC2)CC1 [Compound 31]	7.48 to 9.60 and 7.80 to 9.60
CO/N=C(/c1ccccn1)C1CCN(C(=O)C2CCN(Cc3ccnc(N)c3)CC2)CC1 [Compound 32]	7.48 to 9.60 and 7.80 to 9.60 and 9.08
CO/N=C(\c1ccccn1)C1CCN(C(=O)C2CCN(Cc3ccnc(N)c3)CC2)CC1 [Compound 33]	7.48 to 9.60 and 7.80 to 9.60
CON=C(c1ccccn1)C1CCN(C(=O)C2CCN(C(C)c3ccnc(N)c3)CC2)CC1 (stereo not drawn) [Compound 53]	7.48 to 9.60
CO/N=C(/c1ccccn1)C1CCN(C(=O)C2CCN([C@@H](C)c3ccnc(N)c3)CC2)CC1 [Compound 54]	7.48 to 9.60 and 7.80 to 9.60 and 8.01 to 8.98
CO/N=C(/c1ccccn1)C1CCN(C(=O)C2CCN([C@H](C)c3ccnc(N)c3)CC2)CC1 [Compound 55]	7.48 to 9.60 and 7.80 to 9.60 and 8.01 to 8.98
CO/N=C(\c1ccccn1)C1CCN(C(=O)C2CCN([C@@H](C)c3ccnc(N)c3)CC2)CC1 [Compound 56]	7.48 to 9.60 and 7.80 to 9.60
CO/N=C(\c1ccccn1)C1CCN(C(=O)C2CCN([C@H](C)c3ccnc(N)c3)CC2)CC1 [Compound 57A]	7.48 to 9.60
CON=C(c1ccc(Cl)cc1)C1CCN(C(=O)C2(O)CCN(Cc3ccnc(N)c3)CC2)CC1 [Compound 59]	7.48 to 9.60
CON=C(c1ccc[n+]([O-])c1)C1CCN(C(=O)C2CCN(Cc3ccnc(N)c3)CC2)CC1 [Compound 92]	7.48 to 9.60
CCON=C(c1ccc(Cl)cc1)C1CCN(C(=O)C2CCN(Cc3ccnc(N)c3)CC2)CC1 [Compound 212]	7.48 to 9.60
CON=C(c1ccc(Cl)cc1)C1CCN(C(=O)N2CCN(Cc3ccnc(N)c3)CC2)CC1 [Compound 215]	7.48 to 9.60
CON=C(c1cc(Cl)cc(Cl)c1)C1CCN(C(=O)C2CCN(Cc3ccnc(N)c3)CC2)CC1 [Compound 218]	7.48 to 9.60
CON=C(c1ccccc1F)C1CCN(C(=O)C2CCN(Cc3ccnc(N)c3)CC2)CC1 [Compound 219]	7.48 to 9.60
CON=C(c1ccccc1Cl)C1CCN(C(=O)C2CCN(Cc3ccnc(N)c3)CC2)CC1 [Compound 220]	7.48 to 9.60
CO/N=C(\c1ccc(Cl)cc1)C1CCN(C(=O)C2CCN(Cc3ccnc(N)c3)CC2)CC1 [Compound 224]	7.48 to 9.60
CO/N=C(/c1ccc(Cl)cc1)C1CCN(C(=O)C2CCN(Cc3ccnc(N)c3)CC2)CC1 [Compound 225]	7.48 to 9.60 and 7.80 to 9.60
CO/N=C(/c1ccc(C(F)(F)F)cc1)C1CCN(C(=O)C2CCN(Cc3ccnc(N)c3)CC2)CC1 [Compound 226]	7.48 to 9.60
CON=C(c1ccc(Cl)cc1)C1CCN(C(=O)C2CCN(C(C)c3ccnc(N)c3)CC2)CC1 (stereo not drawn) [Compound 227]	7.48 to 9.60

Structure (SMILES)	pKi
CCON=C(c1ccc(F)cc1F)C1CCN(C(=O)C2CCN(Cc3ccnc(N)c3)CC2)CC1 [Compound 229]	7.48 to 9.60
CON=C(c1ccc(Cl)cc1Cl)C1CCN(C(=O)C2CCN(C(C)c3ccnc(N)c3)CC2)CC1 (stereo not drawn) [Compound 233]	7.48 to 9.60
CON=C(c1ccsc1)C1CCN(C(=O)C2CCN(Cc3ccnc(N)c3)CC2)CC1 [Compound 235]	7.48 to 9.60
Nc1cc(CN2CCC(C(=O)N3CCC(C(=NO)c4ccccn4)CC3)CC2)ccn1 [Compound 237]	7.48 to 9.60 and 7.80 to 9.60
CON=C(c1ccccc1)C1CCN(C(=O)C2CCN(Cc3ccnc(N)c3)CC2)CC1 [Compound 238]	7.48 to 9.60
CCO/N=C(/c1ccccn1)C1CCN(C(=O)C2CCN(Cc3ccnc(N)c3)CC2)CC1 [Compound 246A]	7.48 to 9.60 and 7.80 to 9.60
CCON=C(c1ccccn1)C1CCN(C(=O)C2CCN(Cc3ccnc(N)c3)CC2)CC1 [Compound 246]	7.48 to 9.60
Nc1cc(CN2CCC(C(=O)N3CCC(c4noc5ncccc45)CC3)CC2)ccn1 [Compound 247]	7.48 to 9.60
CON=C(c1ncccn1)C1CCN(C(=O)C2CCN(Cc3ccnc(N)c3)CC2)CC1 [Compound 248]	7.48 to 9.60
CON=C(c1cccc(S(=O)(=O)N(C)C)c1)C1CCN(C(=O)C2CCN(Cc3ccnc(N)c3)CC2)CC1 [Compound 251]	7.48 to 9.60
CO/N=C(/c1csc(C)n1)C1CCN(C(=O)C2CCN(Cc3ccnc(N)c3)CC2)CC1 [Compound 253A]	7.48 to 9.60 and 7.80 to 9.60 and 8.01 to 8.98
CON=C(c1csc(C)n1)C1CCN(C(=O)C2CCN(Cc3ccnc(N)c3)CC2)CC1 [Compound 253]	7.48 to 9.60
CO/N=C(/c1ccc(Cl)cc1)C1CCN(C(=O)C2CCN(Cc3ccncc3)CC2)CC1 [Compound 273]	7.80 to 9.60
O=C(C1CCN(Cc2ccncc2)CC1)N1CCC(/C(=N\O)c2ccc(F)cc2)CC1 [Compound 275]	7.48 to 9.60
CON=C(c1ccc(Cl)cc1)C1CCN(C(=O)C2CCN(Cc3ccnc(N)c3)CC2)CC1 [Compound 280]	7.80 to 9.60
CO/N=C(/c1ccccn1)C1CCN(C(=O)C2CCN(Cc3cnc(N)nc3)CC2)CC1 [Compound 287]	7.48 to 9.60 and 7.80 to 9.60 and 8.01 to 8.98
CON=C(c1ccccn1)C1CCN(C(=O)C2CCN(Cc3ccncc3N)CC2)CC1 [Compound 296]	7.48 to 9.60 and 7.80 to 9.60
CO/N=C(/c1ccccn1)C1CN(C(=O)C2CCN(Cc3ccnc(N)c3)CC2)C1 [Compound 301]	7.48 to 9.60 and 7.80 to 9.60
CON=C(C1CCCCC1)C1CCN(C(=O)C2CCN(Cc3ccnc(N)c3)CC2)CC1 [Compound 309]	7.48 to 9.60 and 7.80 to 9.60
Nc1cc(CN2CCC(C(=O)N3CCC(C(=O)c4ccc5ccccc5n4)CC3)CC2)ccn1 [Compound 312]	7.48 to 9.60 and 7.80 to 9.60
Nc1cc(CN2CCC(C(=O)N3CCC(/C(=N\OCC(F)(F)F)c4ncccc4F)CC3)CC2)ccn1 [Compound 320]	8.01 to 8.98
